The values below come from BindingDB's records for doi:10.1128/AAC.00311-07 (University of California San Francisco, 2007).

The experiment addresses T1, Lanosterol 14-alpha demethylase (Mycobacterium tuberculosis (strain CDC 1551 / Oshkosh), UniProt P9WPP8).
T1 sequence (P9WPP8 whole entry): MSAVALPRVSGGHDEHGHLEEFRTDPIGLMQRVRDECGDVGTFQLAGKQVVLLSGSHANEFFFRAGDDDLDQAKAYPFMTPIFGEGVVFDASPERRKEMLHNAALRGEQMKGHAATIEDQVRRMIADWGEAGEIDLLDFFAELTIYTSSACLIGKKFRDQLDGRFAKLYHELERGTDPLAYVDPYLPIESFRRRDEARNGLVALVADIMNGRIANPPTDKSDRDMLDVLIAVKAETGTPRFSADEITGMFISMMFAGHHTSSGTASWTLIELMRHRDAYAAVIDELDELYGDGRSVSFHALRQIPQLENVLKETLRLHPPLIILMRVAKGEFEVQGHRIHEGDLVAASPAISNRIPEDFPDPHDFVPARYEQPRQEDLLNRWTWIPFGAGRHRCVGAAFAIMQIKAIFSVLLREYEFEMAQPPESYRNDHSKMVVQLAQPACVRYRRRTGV
As to the kind of experiment: Ligand Binding Assay. Particulars: pH 7.5; 37 °C. The text has this:
The assay was developed based on the optical spectral property of P450 enzyme to elicit both type I and type II spectral changes (350 nm through 450 nm). The concentration dependence of the changes allows the binding affinities of the ligands to be estimated. Titration data were linearized by plotting S0/deltaA against S0, where S0 is the total concentration of a ligand and deltaA is the change in absorption. The equilibrium dissociation constant (Kd) was extrapolated from the intercept of the linear plot with the S0 axis.

Molecules are shown by their SMILES.

A word on the Kd: it is a measure of binding affinity in units of concentration. Low values mean tighter binding, high ones weaker binding. `O=C1c2cc(O)ccc2-c2ccc(O)cc21` [2,7-Dihydroxy-9-fluorenone] returned a Kd of 37.5 µM. In other words, the double-digit micromolar range.
The figure for `Nc1ccc(NS(=O)(=O)c2ccc(Cl)cc2)cc1` [N-(4-aminophenyl)-4-chlorobenzene-1-sulfonamide] is 7.5 µM; for `NCC(=O)N1c2ccccc2SC2C=CC=CC21` (stereo not drawn) [1-(10,10a-dihydro-4aH-phenothiazin-10-yl)-2-aminoethan-1-one] it is 7.5 µM.
Regarding `COc1ccccc1C(CCN)c1ccco1` (stereo not drawn) [3-furan-2-yl-3-(2-methoxyphenyl)propan-1-amine], binding was put at a Kd of 7.5 µM.
`O=C(Nc1ccncc1)C1(c2ccccc2)CCOCC1` [4-phenyl-N-pyridin-4-yltetrahydro-2H-pyran-4-carboxamide] had an equilibrium dissociation constant (Kd) of 7.5 µM.
The figure for `c1ccc(-c2c[nH]cn2)cc1` is 1300 µM.
With `C[C@]12CCC3c4ccc(O)cc4CCC3C1C[C@@H](O)[C@@H]2O` (stereo partly drawn) [Epiestriol] the figure was 100 µM.
The figure for `CCC1(C)CC(CCN)(c2ccc(OC)cc2)CCO1` (stereo not drawn) [2-[2-ethyl-4-(4-methoxyphenyl)-2-methyloxan-4-yl]ethan-1-amine] is 7.5 µM.
